Patent US8501770B2 (ArQule, Inc., priority 2009, dated 2013)
pIC50: −log10 of the molar value. Structures can show the parent of a compound that is named as a salt. Where two headings read alike, the source gives them in different places.

Columns and labels:
A2780 = assay: MTS Assay, cell proliferation, A2780; format: cell-based; conditions: Homo sapiens, read-out: Average of [CELL], IC50, MTS (72 hours; 10 Percent; FBS) A2780
Procedure: (§1) Cell proliferation analysis. Cell survival was determined by the MTS assay. Briefly, cells were plated in a 96-well plate at 2,000-10,000 cells per well, cultured for 24 hours in complete growth medium, and then treated with various drugs and drug combinations for 72 hours. MTS was added and incubated for 4 hour, followed by assessment of cell viability using the microplate reader at 570 nm. Data were normalized to untreated controls and analyzed with Microsoft Excel.

[1] = target: Full-length inactive AKT1 (Homo sapiens, UniProt P31749); assay: Inactive Akt Alpha Screen Assay; format: biochemical; conditions: for pIC50: values not marked with "*", read-out: Akt1 IC50, (AlphaScreen); for IC50: AlphaScreen assay (values not marked with *), read-out: Akt1 IC50, (AlphaScreen) (μM) (or if marked with “*” HTRF assay)
Summary of the method: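 AlphaScreen read-out (excitation 640 nm, emission 570 nm) after 90 min incubation at room temperature in the dark. Signal comes from crosstide phosphorylation by AKT1, which was activated by added PDK1, MAPKAPK2, ATP and lipid vesicles, captured via phospho-AKT substrate antibody and streptavidin beads.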

BT474 = assay: MTS Assay, cell proliferation, BT474; format: cell-based; conditions: Homo sapiens, BT-474, read-out: Average of [CELL], IC50, MTS (72 hours; 10 Percent; FBS) BT474
Procedure: as §1

LnCap = assay: MTS Assay, cell proliferation, LnCap; format: cell-based; conditions: Homo sapiens, read-out: Average of [CELL], IC50, MTS (72 hours; 10 Percent; FBS) LnCap
Procedure: as §1

AN3CA = assay: MTS Assay, cell proliferation, AN3CA; format: cell-based; conditions: Homo sapiens, AN3-CA, read-out: Average of [CELL], IC50, MTS (72 hours; 10 Percent; FBS) AN3CA
Procedure: as §1

Sequence of Full-length inactive AKT1 (P31749 whole entry): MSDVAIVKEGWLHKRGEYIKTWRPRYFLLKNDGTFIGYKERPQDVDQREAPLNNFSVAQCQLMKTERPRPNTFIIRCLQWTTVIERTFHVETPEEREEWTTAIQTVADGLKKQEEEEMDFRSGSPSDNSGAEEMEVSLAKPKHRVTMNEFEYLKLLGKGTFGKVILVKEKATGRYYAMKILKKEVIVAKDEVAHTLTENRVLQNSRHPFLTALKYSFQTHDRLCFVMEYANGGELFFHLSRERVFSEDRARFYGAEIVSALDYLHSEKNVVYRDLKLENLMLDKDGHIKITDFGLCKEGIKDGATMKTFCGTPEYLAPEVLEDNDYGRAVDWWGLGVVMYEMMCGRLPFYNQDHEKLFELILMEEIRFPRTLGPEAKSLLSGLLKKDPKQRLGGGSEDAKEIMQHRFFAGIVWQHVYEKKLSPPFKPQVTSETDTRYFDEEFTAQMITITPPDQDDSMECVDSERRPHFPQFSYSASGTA

| Compound | IC50 [1] | also measured |
| --- | --- | --- |
| CC(=O)Nc1cccc(-c2ccc3nc(-c4cccnc4N)n(-c4ccc(CC(=O)Nc5ccccc5)cc4)c3n2)c1 [Example 261, 2-(4-(5-(3-acetamidophenyl)-2-(2-aminopyridin-3-yl)-3H-imidazo[4,5-b]pyridin-3-yl)phenyl)-N-phenylacetamide] | – | pIC50 (A2780): 5.48; pIC50 [1]: 7.89; pIC50 (BT474): 5.89; pIC50 (LnCap): 5.72; pIC50 (AN3CA): 5.66 |
| CC(=O)Nc1cccc(-c2ccc3nc(-c4cccnc4N)n(-c4ccc(CNC(=O)c5ccccc5)cc4)c3n2)c1 [Example 287, N-(4-(5-(3-acetamidophenyl)-2-(2-aminopyridin-3-yl)-3H-imidazo[4,5-b]pyridin-3-yl)benzyl)benzamide] | – | pIC50 (A2780): 5.80; pIC50 [1]: 7.85; pIC50 (BT474): 5.92; pIC50 (LnCap): 5.70; pIC50 (AN3CA): 5.82 |
| CC(=O)Nc1cccc(NC(=O)Cc2ccc(-n3c(-c4cccnc4N)nc4ccc(-c5cccc(NC(C)=O)c5)nc43)cc2)c1 [Example 289, N-(3-acetamidophenyl)-2-(4-(5-(3-acetamidophenyl)-2-(2-aminopyridin-3-yl)-3H-imidazo[4,5-b]pyridin-3-yl)phenyl)acetamide] | – | pIC50 (A2780): 5.00; pIC50 [1]: 8.20; pIC50 (BT474): 5.49; pIC50 (LnCap): 4.77; pIC50 (AN3CA): 4.92 |
| Cc1ccc(-c2ccc3nc(-c4cccnc4N)n(-c4ccc(C5(N)CCC5)cc4)c3n2)cc1O [Example 443, 5-{3-[4-(1-aminocyclobutyl)phenyl]-2-(2-aminopyridin-3-yl)-3H-imidazo[4,5-b]pyridin-5-yl}-2-methylphenol] | 0.012 µM | – |
| Nc1ncccc1-c1nc2ccc(-c3cccc(O)c3F)nc2n1-c1ccc(C2(N)CCC2)cc1 [Example 445, 3-{3-[4-(1-aminocyclobutyl)phenyl]-2-(2-aminopyridin-3-yl)-3H-imidazo[4,5-b]pyridin-5-yl}-2-fluorophenol] | 0.014 µM | – |
| Nc1ncccc1-c1nc2ccc(-c3ccc(O)nc3)nc2n1-c1ccc(C2(N)CCC2)cc1 [Example 447, 5-{3-[4-(1-aminocyclobutyl)phenyl]-2-(2-aminopyridin-3-yl)-3H-imidazo[4,5-b]pyridin-5-yl}pyridin-2-ol] | 0.045 µM | – |
| Nc1ncccc1-c1nc2ccc(-c3cccc4c3CC(=O)N4)nc2n1-c1ccc(C2(N)CCC2)cc1 [Example 454, 4-{3-[4-(1-aminocyclobutyl)phenyl]-2-(2-aminopyridin-3-yl)-3H-imidazo[4,5-b]pyridin-5-yl}-1,3-dihydro-2H-indol-2-one] | 0.0094 µM | – |
| CN(C)S(=O)(=O)Nc1cccc(-c2ccc3nc(-c4cccnc4N)n(-c4ccc(C5(N)CCC5)cc4)c3n2)c1 [Example 455, N′-(3-{3-[4-(1-aminocyclobutyl)phenyl]-2-(2-aminopyridin-3-yl)-3H-imidazo[4,5-b]pyridin-5-yl}phenyl)-N,N-dimethylsulfamide] | 0.011 µM | – |
| Nc1ncccc1-c1nc2ccc(-c3cccc(N4CCC4)c3)nc2n1-c1ccc(C2(N)CCC2)cc1 [Example 457, 3-{3-[4-(1-aminocyclobutyl)phenyl]-5-(3-azetidin-1-ylphenyl)-3H-imidazo[4,5-b]pyridin-2-yl}pyridin-2-amine] | 0.0093 µM | – |
| Nc1ncccc1-c1nc2ccc(-c3cccc(N4CCCCCC4)c3)nc2n1-c1ccc(C2(N)CCC2)cc1 [Example 458, 3-{3-[4-(1-aminocyclobutyl)phenyl]-5-(3-azepan-1-ylphenyl)-3H-imidazo[4,5-b]pyridin-2-yl}pyridin-2-amine] | 0.012 µM | – |
| CN(C)C1CCN(c2cccc(-c3ccc4nc(-c5cccnc5N)n(-c5ccc(C6(N)CCC6)cc5)c4n3)c2)CC1 [Example 460, 3-(3-[4-(1-aminocyclobutyl)phenyl]-5-{3-[4-(dimethylamino)piperidin-1-yl]phenyl}-3H-imidazo[4,5-b]pyridin-2-yl)pyridin-2-amine] | 0.011 µM | – |
| Nc1ncccc1-c1nc2ccc(-c3cccc(N4CCC(O)CC4)c3)nc2n1-c1ccc(C2(N)CCC2)cc1 [Example 462, 1-(3-{3-[4-(1-aminocyclobutyl)phenyl]-2-(2-aminopyridin-3-yl)-3H-imidazo[4,5-b]pyridin-5-yl}phenyl)piperidin-4-ol] | 0.01 µM | – |
| Nc1ncccc1-c1nc2ccc(-c3cccc(N4CCC5(CC4)OCCO5)c3)nc2n1-c1ccc(C2(N)CCC2)cc1 [Example 464, 3-{3-[4-(1-aminocyclobutyl)phenyl]-5-[3-(1,4-dioxa-8-azaspiro[4.5]dec-8-yl)phenyl]-3H-imidazo[4,5-b]pyridin-2-yl}pyridin-2-amine] | 0.011 µM | – |

The next lines start with results.

| IC50 [1] | Compound | also measured |
| --- | --- | --- |
| 0.0066 µM | CCNC(=O)c1cccc(-c2ccc3nc(-c4cccnc4N)n(-c4ccc(C5(N)CCC5)cc4)c3n2)c1 [Example 441, 3-{3-[4-(1-aminocyclobutyl)phenyl]-2-(2-aminopyridin-3-yl)-3H-imidazo[4,5-b]pyridin-5-yl}-N-ethylbenzamide] | – |
| 0.0049 µM | Nc1ncccc1-c1nc2ccc(-c3cccc4[nH]ncc34)nc2n1-c1ccc(C2(N)CCC2)cc1 [Example 442, 3-{3-[4-(1-aminocyclobutyl)phenyl]-5-(1H-indazol-4-yl)-3H-imidazo[4,5-b]pyridin-2-yl}pyridin-2-amine] | – |
| 0.0068 µM | COc1cccc(-c2ccc3nc(-c4cccnc4N)n(-c4ccc(C5(N)CCC5)cc4)c3n2)c1C#N [Example 444, 2-{3-[4-(1-aminocyclobutyl)phenyl]-2-(2-aminopyridin-3-yl)-3H-imidazo[4,5-b]pyridin-5-yl}-6-methoxybenzonitrile] | – |
| 0.0089 µM | Nc1ncccc1-c1nc2ccc(-c3c[nH]c4ccncc34)nc2n1-c1ccc(C2(N)CCC2)cc1 [Example 446, 3-{3-[4-(1-aminocyclobutyl)phenyl]-5-(1H-pyrrolo[3,2-c]pyridin-3-yl)-3H-imidazo[4,5-b]pyridin-2-yl}pyridin-2-amine] | – |
| 0.0039 µM | Nc1ncccc1-c1nc2ccc(-c3ccnc(O)c3)nc2n1-c1ccc(C2(N)CCC2)cc1 [Example 448, 4-{3-[4-(1-aminocyclobutyl)phenyl]-2-(2-aminopyridin-3-yl)-3H-imidazo[4,5-b]pyridin-5-yl}pyridin-2-ol] | – |
| 0.0023 µM | Nc1ncccc1-c1nc2ccc(-c3cccc(N4CCCC4)c3)nc2n1-c1ccc(C2(N)CCC2)cc1 [Example 449, 3-{3-[4-(1-aminocyclobutyl)phenyl]-5-(3-pyrrolidin-1-ylphenyl)-3H-imidazo[4,5-b]pyridin-2-yl}pyridin-2-amine] | – |
| 0.0072 µM | CNC(=O)c1ccc(-c2ccc3nc(-c4cccnc4N)n(-c4ccc(C5(N)CCC5)cc4)c3n2)cc1F [Example 450, 4-{3-[4-(1-aminocyclobutyl)phenyl]-2-(2-aminopyridin-3-yl)-3H-imidazo[4,5-b]pyridin-5-yl}-2-fluoro-N-methylbenzamide] | – |
| 0.0071 µM | Nc1ncccc1-c1nc2ccc(-c3cccc(N4CCOCC4)n3)nc2n1-c1ccc(C2(N)CCC2)cc1 [Example 451, 3-{3-[4-(1-aminocyclobutyl)phenyl]-5-(6-morpholin-4-ylpyridin-2-yl)-3H-imidazo[4,5-b]pyridin-2-yl}pyridin-2-amine] | – |
| 0.0041 µM | Nc1ncccc1-c1nc2ccc(-c3ccc4[nH]ccc4c3)nc2n1-c1ccc(C2(N)CCC2)cc1 [Example 452, 3-{3-[4-(1-aminocyclobutyl)phenyl]-5-(1H-indol-5-yl)-3H-imidazo[4,5-b]pyridin-2-yl}pyridin-2-amine] | – |
| 0.0028 µM | Nc1ncccc1-c1nc2ccc(-c3ccc4c(c3)CC(=O)N4)nc2n1-c1ccc(C2(N)CCC2)cc1 [Example 453, 5-{3-[4-(1-aminocyclobutyl)phenyl]-2-(2-aminopyridin-3-yl)-3H-imidazo[4,5-b]pyridin-5-yl}-1,3-dihydro-2H-indol-2-one] | – |
| 0.0031 µM | Nc1ncccc1-c1nc2ccc(-c3cccc(-n4cccn4)c3)nc2n1-c1ccc(C2(N)CCC2)cc1 [Example 456, 3-{3-[4-(1-aminocyclobutyl)phenyl]-5-[3-(1H-pyrazol-1-yl)phenyl]-3H-imidazo[4,5-b]pyridin-2-yl}pyridin-2-amine] | – |
| 0.0077 µM | Nc1ncccc1-c1nc2ccc(-c3cccc(N4CCCOCC4)c3)nc2n1-c1ccc(C2(N)CCC2)cc1 [Example 459, 3-{3-[4-(1-aminocyclobutyl)phenyl]-5-[3-(1,4-oxazepan-4-yl)phenyl]-3H-imidazo[4,5-b]pyridin-2-yl}pyridin-2-amine] | – |
| 0.0058 µM | Nc1ncccc1-c1nc2ccc(-c3ccc(N4CCOCC4)cc3)nc2n1-c1ccc(C2(N)CCC2)cc1 [Example 465, 3-{3-[4-(1-aminocyclobutyl)phenyl]-5-(4-morpholin-4-ylphenyl)-3H-imidazo[4,5-b]pyridin-2-yl}pyridin-2-amine hydrochloride] | – |
| 0.0035 µM | Nc1ncccc1-c1nc2ccc(-c3cccc(N4CCOCC4=O)c3)nc2n1-c1ccc(C2(N)CCC2)cc1 [Example 466, 4-(3-{3-[4-(1-aminocyclobutyl)phenyl]-2-(2-aminopyridin-3-yl)-3H-imidazo[4,5-b]pyridin-5-yl}phenyl)morpholin-3-one hydrochloride] | – |
